Patent publication US20260108496A1, “METHODS FOR REPROGRAMING EXHAUSTED T CELLS AND BOOSTING IMMUNE CHECKPOINT BLOCKADE THERAPY FOR CANCER” (Ohio State Innovation Foundation, priority 2022, published 2026)

Tests used:
[1] = system: LCMV-specific CD8+ T cells; type: in vivo, C57BL/6 mice; conditions: treatment followed by anti-PD-L1
[2] = system: human CD8+ T cells; experiment: whole-genome bisulfite sequencing of human CD8+ T cells; type: cell-based
Description: Human CD8+ T cells were sorted on days 0 (naïve), 7, and 28, and genomic DNA was extracted and bisulfite-treated to convert unmethylated cytosine to uracil residues using the EZ DNA Methylation-Direct Kit (Zymo). DNA libraries were prepared using Swift Accel-NGS® D Methyl-Seq DNA Library Kit according to the manufacturer's protocol. The libraries were purified by the AMPureXP Beads followed by QC using Qubit method, and the purified DNA was captured on an Illumina flow cell for cluster generation. Libraries were sequenced on the NovaSeq-S2 platform following the manufacturer's protocols. Sequencing data were aligned to the Hg38 genome using BSMAP. Adapter were trimmed from FASTQ sequences (trimglore) and mapped to the hg38 genome using the BSMAP v. 2.74 software. CpGs were extracted by the methratio.py in the BSMAP package. Differential analysis of CpG methylation among the datasets was determined with a Bayesian hierarchical model to detect regional methylation differences with at least three CpG site. Differentially methylated regions (DMRs) were identified using Bioconductor package DSS and custom R scripts with a threshold of 30% change in methylation ratio and P-value <0.01 with at least 10 reads per CpG site as a cutoff.

[3] = system: human CD8+ T cells; experiment: BMP4 agonist treatment of human CD8+ T cells under chronic strong TCR stimulation; type: cell-based
Excerpt: To determine whether activating the SMAD1/5-dependent pathway attenuates a progression of chronically stimulated T cells to dysfunction, we augmented SMAD1/5-signaling using SB4 (2-[[(4-Bromophenyl)methyl]thio]benzoxazole), as shown in the formula: […]
SB4 is a selective small molecule BMP4 agonist (BMP4a) that stabilizes SMAD1/5 phosphorylation—in human CD8+ T cells under chronic strong TCR stimulation (FIG. 15a). […] CD39, CD103, and CD101 (FIG. 15e-i). Importantly. […] Taken together, these findings reveal a novel role for BMP4 signals in reversing exhaustion features and enhancing the survival of chronically stimulated CD8+ T cells.
For “Weak TCR” stimulation, 30 ng/ml of purified monoclonal anti-human CD3 (clone: OKT3; BioLegend) was continuously added onto the seeded CBMCs to provide TCR stimulation plus natural costimulation via CD80/CD86 on Fc-expressing CBMCs that survive in the first few days. For “Strong TCR” stimulation setting, flat-bottom plates were coated with purified monoclonal anti-human CD3 (5 ug/ml) and anti-human CD28 (1 ug/ml) (clone: CD28.2; BioLegend) at 4° C. overnight, then CMBCs were isolated and seeded in complete T cell medium as described above on day 0. On day 7, viable CD8+ T cells were FACS-purified using the Sony MA900 cell sorter. Purified CD8+ T cells were then continuously stimulated in plates coated with anti-CD3 only (5 ug/ml). Media was replenished every 2-3 days, and cells were incubated at 37 C and 5% CO2 throughout the duration of the experiment. Human TGFβ1 (5 ng/ml, Peprotech) was added to the media starting on day 7. […] Vitamin C (100 μM, MedChemExpress LLC) was added to the media starting on day 21. For the acute TCR stimulation condition, anti-CD3 was no longer added to the media starting on day 7. For recovery experiments in FIG. 16 and FIGS. 22 and 26, CD8+ T cells were rested from TCR stimulation and TGFβ1 starting on day 28 for 7-14 days in T cell media containing recombinant human IL-15 only (10 ng/ml).
(§1) On days 7, 14, 21, and 28 (and day 35 and 42 for recovery experiments), human CBMCs were stimulated with PMA/Ionomycin (Cell Stimulation Cocktail plus protein transport inhibitors, eBioscience) for 3 hours at 37° C., 5% CO2. Incubation was followed immediately by antibody intracellular staining for flow cytometry.

[4] = system: Dysf. CD8+ T cells; experiment: reprogramming treatment of Dysf. (chronic TCR plus TGFβ1) human CD8+ T cells; type: cell-based
Description: On day 7, viable CD8+ T cells were FACS-purified using the Sony MA900 cell sorter. Purified CD8+ T cells were then continuously stimulated in plates coated with anti-CD3 only (5 ug/ml). Media was replenished every 2-3 days, and cells were incubated at 37 C and 5% CO2 throughout the duration of the experiment. Human TGFβ1 (5 ng/ml, Peprotech) was added to the media starting on day 7. Treatment with RepSox (25 μM) and SB4 (10 μM) (MedChemExpress LLC) or vehicle control (DMSO, ThermoFisher) were added to the media starting on day 14 or 21. Vitamin C (100 μM, MedChemExpress LLC) was added to the media starting on day 21. For the acute TCR stimulation condition, anti-CD3 was no longer added to the media starting on day 7. For recovery experiments in FIG. 16 and FIGS. 22 and 26, CD8+ T cells were rested from TCR stimulation and TGFβ1 starting on day 28 for 7-14 days in T cell media containing recombinant human IL-15 only (10 ng/ml).
as §1
Human CBMCs from ex vivo stimulation experiments (acute or chronic TCR, and chronic TCR+TGFβ1) were labeled with 5(6)-Carboxyfluorescein diacetate N-succinimidyl ester (CFSE) (1 μM, Sigma) by staining in PBS for 7 minutes at room temperature, followed by quenching with 20% FBS. Proliferation was tracked on days 35 and 42 by assessing CFSE fluorescence via flow cytometry. Each peak of CFSE fluorescence signal represents one cell division cycle.

[5] = system: human CD8+ T cells; experiment: RNA-sequencing of human CD8+ T cells; type: cell-based
Description: RNA was isolated using PicoPure™ RNA Isolation Kit (Applied Biosystems) from frozen cell pellets of human CD8+ T cells that were FACS-purified from days 0 (naïve), 7, and 28. Following the kit protocol. Partek Flow was used for RNA-seq analysis. In brief, pre-alignment QC/QA analysis was performed on the FASTQ files, followed by read alignment on human whole genome hg38 using STAR. The aligned reads were quantified to the hg38 RefSeq Transcripts 98 using the Quantify to annotation model on Partek and gene counts were filtered (exclude features where maximum <50.0). Filtered gene counts were normalized using median ratio for DESeq2 analysis to measure differential gene expression among different populations of CD8+ T cells. Differentially expressed genes (DEGs) were identified for genes showing fold change ≥2 and p-value 0.05.

[6] = system: B16-F10-LCMV-GP tumor; type: in vivo, C57BL/6 mice; conditions: therapy initiated after tumor development, i.p. every 2 days, through day 17
[7] = system: P14 CD8 T cells; experiment: in-vitro co-culture of P14 CD8 T cells with CT2A-gp33 tumor cells (Example 1); type: cell-based, mouse
Excerpt: To study their epigenetic (re)programming, we developed a novel in-vitro model of CD8 T cell exhaustion. First, we optimized conditions for in-vitro co-culture of gp33-expressing murine brain tumor cells (CT2A-gp33) and TCR transgenic gp33-specific CD8 T cells (P14 cells). We were able to enforce differentiation of anti-tumor CD8 T cells under their persistent TCR stimulation by repeated exposure to the tumor antigen and tumor-derived factors, such as TGFβ1. […] However, with prolonged exposure to the tumor antigen, the effector CD8 T cells progressively lose cytokine production and tumor killing activity (FIGS. 8A, 8B, and 8C).
To assess the impact of TGFβ1 signaling on the progression of CD8 T cells toward dysfunction, we treated co-cultures with TGFβ1 or RepSox (also known as E-616452) (2-(3-(6-Methylpyridine-2-yl)-1H-pyrazol-4-yl)-1,5-naphthyridine) as shown in the formula: […]
RepSox is a potent selective inhibitor of the TGFβ type 1 receptor (ALK5)—for 11 days after effector differentiation was complete (day 6).
We also examined the impact of BMP-2/4 signaling on RepSox-treated P14 CD8 T cells. […] Taken together, our findings indicate that TGFβ1-signaling not only accelerates the development of T cell dysfunction, but also maintains silencing of lymphoid homing markers on CD8 T cells. Importantly, our findings support the feasibility of using this novel in-vitro model as a tractable tool that can guide our in-vivo work by providing first-line mechanistic studies.

[8] = monotherapy, in the absence of TGFβ R1 blocker

For `Brc1ccc(CSc2nc3ccccc3o2)cc1` [SB4, 2-[[(4-Bromophenyl)methyl]thio]benzoxazole], the “dysfunctional CD8+ T cell responses during anti-PD-L1 treatment” value [1] was “did not improve”, the “DNA methylation patterns in Dysf. CD8+ T cells” value ([2]; combined with RepSox) was “more pronounced” and the “expression of exhaustion-associated molecules (PD-1, LAG3, CD39, CD103, CD101)” value ([3]; day 21) was “reducing the expression”. For the same molecule, the “numbers of persistently stimulated CD8+ T cells” value ([3]; day 21) was “rescued significantly higher numbers”, the “proliferation activity (Ki67)” value ([3]; day 21) was “without increasing” and the polyfunctionality ([3]; day 21, treatment day 7-21, after PMA/Ionomycin) was “significantly increased”. The “expression levels of terminal dysfunction molecules” value ([4]; in RepSox-treated Dysf. CD8+ T cells) was “further reducing”, the “effector function of Dysf. CD8+ T cells” value [4, 8] was “not sufficient to restore” and the “expression levels of dysfunction-related molecules (PD-1, LAG3, CD101, CD103)” value [4, 8] was “significantly reduced”. The effector cytokine production ([4]; sorted most dysfunctional subset, added to RepSox) was “further enhanced”, the “expression of genes regulating T cell co-stimulation, chemotaxis and stemness (CD28, FOSB, FCGR3A, CXCL8, POU2F2)” value ([5]; Reprog.II versus Reprog.I) was “re-activated expression” and the tumor control [6] was “modest tumor control”.
In the case of `Cc1cccc(-c2n[nH]cc2-c2ccc3ncccc3n2)n1` [RepSox, 2-(3-(6-Methylpyridine-2-yl)-1H-pyrazol-4-yl)-1,5-naphthyridine], the “dysfunctional CD8+ T cell responses during anti-PD-L1 treatment” value [1] is reported as “did not improve”, the “CD62L (L-selectin) expression” value ([7]; P14 CD8 T cells) is reported as “restored” and the “levels of PD-1” value ([7]; P14 CD8 T cells) is reported as “maintained high levels”. The tumor killing activity ([7]; persistently stimulated P14 cells, treatment from day 6) was “preserved”, the “effector function (expression of IFNγ, T-bet and Gzmb)” value ([7]; relative to Day 6-effector CD8 T cells) was “boosted the effector function” and the “DNA methylation patterns in Dysf. CD8+ T cells” value ([2]; RepSox alone, day 28) was “induced distinct methylation patterns”. For the same molecule, the “effector molecules (IFNγ, TNFα, CD107a, T-bet)” value ([4]; RepSox alone, day 28) was “restored”, the “surface markers associated with terminal dysfunction (CD101, PD-1, LAG3)” value ([4]; RepSox alone, day 28) was “downregulated” and the effector cytokine production ([4]; sorted most dysfunctional subset (CD107a low CD11a low), RepSox 2 weeks) was “significantly recovered”. For the same molecule, the “expression of effector function-related and memory-related genes” value ([5]; TGFBR1 blockade alone, Dysf. CD8+ T cells, day 28) was “restored substantial expression levels”, the “ACVR1 and ACVR2A expression” value ([5]; normalized RNA levels, chronic stimulation) was “increased expression” and the tumor control [6] was “modest tumor control”.
